Experimental data: patent US20230416299A1, “COMPOUND AND METHOD FOR THE TREATMENT AND DIAGNOSIS OF NEURODEGENERATIVE CONDITIONS” (Swansea University, priority 2013, published 2023)

Tests used:
[1] = tested on: Abca1, Abcg1 and Srebf1 transcript levels; experiment: Quantitative PCR of Lxr target genes in SN4741 cells; type: cell-based, mouse; conditions: SN4741 cells treated 3 h
Procedure: (§1) Quantitative PCR. Total RNA was extracted from SN4741 cells and zebrafish treated with the compounds of interest using the RNeasy Mini Kit (Qiagen), 1 μg was treated with RQ1 RNase-free DNase (Promega) and reverse transcribed using Superscript II Reverse Transcriptase (Invitrogen) and random primers (Invitrogen) (RT+ reaction). Parallel reactions without reverse transcriptase enzyme were done as a control (RT− reaction), and Sybergreen real-time quantitative PCR assays were performed. Expression levels were obtained by normalization with the value of the housekeeping gene encoding actin obtained for every sample in parallel assays.

[2] = tested on: Islet1+ oculomotor neurons; experiment: In utero injection into the cerebral aqueduct of E11.5 mice, analysis at E13.5; type: in vivo, mouse
Description: Animals for in-utero injections and tissue preparation. Female wild-type CD-1 mice (25-35 g; Charles River Breeding Laboratories) were housed, bred, and treated according to the guidelines of the European Communities Council (directive 86/609/EEC) and the Society for Neuroscience (www.sfr.org), and all experiments were approved by the local ethical committee. Ethical approval for CD-I mice experimentation was granted by Stockholm Norra Djurforsoksetisks Namnd number N1 54/06, N273/11 and N370/09. For embryo analyses, wild type CD-I mice were mated overnight, and noon of the day the plug was considered E0.5. Embryos were dissected out of the uterine horns in ice-cold PBS, fixed in 4% paraformaldehyde (PFA) for 4 h to overnight, cryoprotected in 15-30% sucrose, frozen in Tissue-Tek Optimum Cutting Temperature (OCT) compound (Sakura Fine-Tek) on dry ice, and stored at −80° C. until use. Serial coronal 14-μπι sections of the brain were obtained on a cryostat.
Immunohistochemical analysis of sections. Ten sets of 14 μπι serial coronal sections were cut on a cryostat. No. 1 and 6 sets were subjected to immunohistochemistry. Sections were pre-incubated for 1 h in blocking solution followed by incubation at 4° C. overnight with following primary antibodies: anti-TH (1:750, Pel-Freeze), anti-Islet-1 (1:100; Developmental Studies Hybridoma Bank), anti-cleaved caspase-3 (Aspl175) (1:100; Cell Signaling Technology). After washing, slides were incubated for 1-2 h at room temperature with the appropriate fluorophore-conjugated (Cy2-, Cy3- and Cy5-, 1:300, Jackson Laboratories; Alexa488-, 555-, and 647-, 1:1000, Invitrogen) secondary antibodies. Confocal pictures were taken with a Zeiss LSM5 Exciter or LSM700 microscope.
In utero intraventricular injections. E11.5 pregnant females were deeply anesthetized using Isofluorane (ISOFLO®, Abbott Labs) and the uterine horns were accessed through an abdominal incision. 1 μL of the different cholestenoic acids studied (5 mM) or vehicle solution (isopropanol, 50% v/v) was injected into the cerebral aqueduct. The uterine horns were replaced into the abdominal cavity, which was then closed with sutures. Embryos were analyzed 48 h later.

[3] = tested on: Islet-1:GFP transgenic zebrafish embryos; type: in vivo
Procedure: as §1
Zebrafish Strain and Mainrenance Zebrafish were raised on a 14/10 h day/night cycle and were kept at 28.5° C. Islet-1:GFP transgenic embryos were obtained via natural spawning and staged in hours or days post fertilization (hpf and dpf) according to Kimmel et al). Embryos older than 24 hpf were treated with 0.03% phenylthiourea (PTU) to inhibit pigmentation. MO injections were performed using splice site specific zebrafish 1xr MO. MO injected embryos were immediately dechorionated and transferred to a 96 well plate and exposed to dimethyl sulfoxide (DMSO) treated or ligand treated medium.
Compound Exposure. Islet-1:GFP embryos were collected by natural mating and immediately (at 1 cell stage) dechorionated and transferred to a 96 well plate. Each of the compounds tested were obtained as 10 mM stock and diluted in embryo medium to a final concentration of 10 μM, and 200 μL was added to each well. DMSO or propan-2-ol treated embryo medium was taken as control. Ligand solutions were replaced every 12 h with fresh ligand solution prepared in PTU treated embryo medium. Embryos were collected at 48 hpf, fixed for 4 h at room temperature with 4% paraformaldehyde and then washed and kept in PBST. Immunocytochemistry was performed using an anti-GFP antibody and fluorescence was viewed and photographed using a Zeiss Axioplan compound microscope and a Zeiss Axiocam digital camera.

Lxrβ-LBD = biological target: T1, Lxrβ-LBD (Homo sapiens, UniProt P55055); experiment: LanthaScreen TR-FRET Lxrβ coactivator assay; type: binding
T1 construct: purchased Invitrogen
T1 sequence (P55055 222-460 limits assumed): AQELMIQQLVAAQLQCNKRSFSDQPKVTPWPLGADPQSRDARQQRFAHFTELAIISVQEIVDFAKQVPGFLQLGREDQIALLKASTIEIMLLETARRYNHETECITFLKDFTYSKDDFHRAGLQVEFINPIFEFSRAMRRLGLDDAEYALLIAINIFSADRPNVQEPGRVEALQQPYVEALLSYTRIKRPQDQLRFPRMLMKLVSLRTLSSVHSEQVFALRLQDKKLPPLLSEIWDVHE
Description: Lxrβ Ligand Binding Assay. For Lxrβ ligand binding activity measurement, the applicants used the LANTHASCREEN™ TR-FRET Lxrβ Coactivator Assay (Invitrogen). The assay uses a terbium (Tb)-labeled anti-GST antibody, a fluorescein-labeled coactivator peptide and the Lxrβ-LBD tagged with glutathione-S-transferase (GST). Binding of the agonist/ligand to Lxrβ-LBD causes a conformational change that result in an increase in the affinity of the Lxrβ for the coactivator peptide. The close proximity of the fluorescently labeled coactivator peptide to the Tb-labeled antibody causes an increase in the TR-FRET signal intensity. The TR-FRET ratio of 520/495 was calculated using a Victor multi label reader with an excitation wavelength of 340 nm and emission wavelengths of 520 nm and 495 nm. The activational capacity of potential ligands was tested in a […] polypropylene plate, following the manufacturer's protocol.

Lxrα = biological target: T2, Lxrα (Homo sapiens, UniProt Q13133); experiment: Lxr-responsive luciferase reporter assay (Lxre + Lxrα) in SN4741 neural cells; type: cell-based, mouse; conditions: 10 μM, 24 h
T2 construct: expressed in transfected cells; host or cells: SN4741 mouse neuronal cell line
T2 sequence (Q13133 1-447): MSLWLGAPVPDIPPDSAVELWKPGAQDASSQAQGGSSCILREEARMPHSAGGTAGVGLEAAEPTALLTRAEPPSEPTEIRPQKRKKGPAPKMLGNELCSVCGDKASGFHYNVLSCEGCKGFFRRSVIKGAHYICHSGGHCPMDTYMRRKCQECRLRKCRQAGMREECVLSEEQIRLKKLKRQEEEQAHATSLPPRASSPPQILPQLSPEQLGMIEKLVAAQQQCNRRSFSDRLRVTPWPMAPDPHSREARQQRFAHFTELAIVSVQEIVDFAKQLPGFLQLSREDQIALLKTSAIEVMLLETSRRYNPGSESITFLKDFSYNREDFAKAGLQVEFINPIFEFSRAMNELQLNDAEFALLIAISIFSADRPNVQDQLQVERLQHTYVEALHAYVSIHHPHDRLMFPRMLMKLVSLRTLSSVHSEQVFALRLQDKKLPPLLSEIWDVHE
Description: Luciferase Reporter Assay.

[4] = 1 μL of 5 mM injected at E11.5, analysed at E13.5

Row | SMILES | Abca1, Abcg1 and Srebf1 transcript levels [1] | Number of Islet+ oculomotor neurons in vivo [2, 4] | Number of TH+ neurons in vivo [2, 4] | Effect of co-injection on the 3β-HCA-induced reduction of Islet+ oculomotor neurons ([2]; co-injected with 3β-HCA) | Islet-1 mRNA and protein level (qPCR, western blot) ([3]; 10 μM) | abca1 mRNA expression in vivo ([3]; 10 μM) | Islet-GFP expression in cranial nerves ([3]; 10 μM, 48 hpf) | Number of Islet1+ cells in cranial nerves (III, IV, V, VII, X) ([3]; 10 μM, 48 hpf) | Islet-GFP levels after lxr morpholino (MO) injection ([3]; 10 μM, lxr MO vs control scrambled MO) | TR-FRET induction (coactivator recruitment to Lxrβ-LBD) (Lxrβ-LBD; dose response) | Lxrα activation, luciferase activity (Lxrα) | Toxicity to zebrafish embryos ([3]; 10 μM in medium) | Competitor concentration with significant difference (p<0.05) from 10 μM 3β,7α-diHCA alone in TR-FRET Lxrβ coactivator assay (Lxrβ-LBD; added to 10 μM 3β,7α-diHCA) [µM] | Competition with 3β,7α-diHCA in TR-FRET Lxrβ coactivator assay (Lxrβ-LBD; increasing concentrations with 3β,7α-diHCA at its most potent concentration)
1 | CC(CCC[C@@H](C)[C@H]1CC[C@H]2[C@@H]3[C@H](O)C=C4C[C@@H](O)CC[C@]4(C)[C@H]3CC[C@]12C)C(=O)O (stereo partly drawn) [3β,7α-diHCA, 3β,7α-dihydroxycholest-5-en-26-oic acid] | increased transcripts levels to a similar degree as 22R-HC | an increase in the number of Islet+ oculomotor neurons | not of TH+ neurons | this effect was eliminated by co-injection of 3β,7α-diHCA | increase in the level of Islet-1 mRNA and protein | enhanced expression of abca1 | increased Islet-GFP expression | no significant effect on the number of Islet1+ cells | abolished the in vivo increase in Islet-GFP levels | induced FRET in a dose dependent manner to a higher degree than the other acids | have the ability to activate both Lxrs | – | – | –
2 | CC(CCC[C@@H](C)[C@H]1CC[C@H]2[C@@H]3CC=C4C[C@@H](O)CC[C@]4(C)[C@H]3CC[C@]12C)C(=O)O (stereo partly drawn) [3β-HCA, 3β-hydroxycholest-5-en-26-oic acid] | induced transcription, but to a lesser extent | the number of Islet+ oculomotor neurons was reduced | – | – | – | – | – | – | – | – | activates Lxr | deleterious toxic effect which impaired the survival of the fish | ≥ 5 | the effect of 3β,7α-diHCA was reduced to that of the latter acids
